Columns and labels:
MM.1S cells = experiment: Inhibition of proliferation of multiple myeloma cells MM.1S (cell viability assay, 96 h); type: cell-based, human; conditions: read-out: inhibitory activity (IC50) against tumor cells proliferation, MM.1S
Protocol: The tumor cells used herein were cultured in a cell culture medium listed in table 2 at 37 °C in an incubator with 5% CO2. Prior to experimentation, all cell lines used were correctly identified by STR profiling, and tested negative for Mycoplasma contamination using a Mycoplasma detection kit through routine screenings.
The IC50 values of the compounds of the present disclosure (including the compounds in Table 1, and Examples 1-498) were determined using the CellTiter-Meiluncell Luminescent Cell Viability Assay Kit from Dalian Meilun Biotech Co., Ltd. The detailed procedure is as follows: Tumor cells were seeded in 96-well cell culture plates at the densities specified in Table 3. On the following day, the test compounds of the present disclosure were subjected to serial dilution. […] Subsequently, 0.5 μL of the test compound dilution was transferred into the 96-well plate containing the cells, with each well containing 100 μL of cell culture medium. […] Into the 96-well plate, the diluted test compounds and corresponding detection reagents were added, resulting in final test compound concentrations of 500 nM and 10 nM, respectively. The experimental procedure is described below using the diluted 2 μM test compound as an example.
0.5 μL of the aforementioned diluted compound of the present disclosure (including the compounds in Table 1, and Examples 1-498) was added to the seeded cells in 100 μL of medium, yielding a final test compound concentration of 10 nM. After the cells were treated with the compounds of the present disclosure for a specified period, the cell viability assay reagent was added to the culture medium according to the kit's instructions to determine cell viability. […] All controls were treated using the same procedure as the compounds of the present disclosure. The growth inhibition curves for the compounds of the present disclosure were plotted using Prism GraphPad software, and the IC50 values were calculated therefrom.

WEE1 = molecular target: T1, WEE1 (Homo sapiens, UniProt P30291+Q96SW2); experiment: Western blot degradation of WEE1 in hPBMCs (24 h); type: cell-based; conditions: compounds at 50 nM and 500 nM
T1 construct: The supernatant was aspirated as the extracted total cell protein; endogenous in cells; host or cells: human peripheral blood mononuclear cells (hPBMCs)
In short: (§1)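 In this assay, each compound was incubated with human PBMCs for 24 h at 50 nM and 500 nM. Target levels were measured by Western blot densitometry normalised to an internal control.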

IKZF1 = molecular target: T2, IKZF1 (Homo sapiens, UniProt Q13422+Q96SW2); experiment: Western blot degradation of IKZF1 in hPBMCs (24 h); type: cell-based; conditions: compounds at 50 nM and 500 nM
T2 construct: The supernatant was aspirated as the extracted total cell protein; endogenous in cells; host or cells: human peripheral blood mononuclear cells (hPBMCs)
In short: as §1

IKZF2 = molecular target: T3, IKZF2 (Homo sapiens, UniProt Q96SW2+Q9UKS7); experiment: Western blot degradation of IKZF2 in hPBMCs (24 h); type: cell-based; conditions: compounds at 50 nM and 500 nM
T3 construct: The supernatant was aspirated as the extracted total cell protein; endogenous in cells; host or cells: human peripheral blood mononuclear cells (hPBMCs)
In short: as §1

IKZF3 = molecular target: T4, IKZF3 (Homo sapiens, UniProt Q96SW2+Q9UKT9); experiment: Western blot degradation of IKZF3 in hPBMCs (24 h); type: cell-based; conditions: compounds at 50 nM and 500 nM
T4 construct: The supernatant was aspirated as the extracted total cell protein; endogenous in cells; host or cells: human peripheral blood mononuclear cells (hPBMCs)
In short: as §1

CK1α = molecular target: T5, CK1α (Homo sapiens, UniProt P48729+Q96SW2); experiment: Western blot degradation of CK1α in hPBMCs (24 h); type: cell-based; conditions: compounds at 50 nM and 500 nM
T5 construct: The supernatant was aspirated as the extracted total cell protein; endogenous in cells; host or cells: human peripheral blood mononuclear cells (hPBMCs)
In short: as §1

GSPT1 = molecular target: T6, GSPT1 (Homo sapiens, UniProt P15170+Q96SW2); experiment: Western blot degradation of GSPT1 in hPBMCs (24 h); type: cell-based; conditions: compounds at 50 nM and 500 nM
T6 construct: The supernatant was aspirated as the extracted total cell protein; endogenous in cells; host or cells: human peripheral blood mononuclear cells (hPBMCs)
In short: as §1

T1 sequence (P30291 whole entry): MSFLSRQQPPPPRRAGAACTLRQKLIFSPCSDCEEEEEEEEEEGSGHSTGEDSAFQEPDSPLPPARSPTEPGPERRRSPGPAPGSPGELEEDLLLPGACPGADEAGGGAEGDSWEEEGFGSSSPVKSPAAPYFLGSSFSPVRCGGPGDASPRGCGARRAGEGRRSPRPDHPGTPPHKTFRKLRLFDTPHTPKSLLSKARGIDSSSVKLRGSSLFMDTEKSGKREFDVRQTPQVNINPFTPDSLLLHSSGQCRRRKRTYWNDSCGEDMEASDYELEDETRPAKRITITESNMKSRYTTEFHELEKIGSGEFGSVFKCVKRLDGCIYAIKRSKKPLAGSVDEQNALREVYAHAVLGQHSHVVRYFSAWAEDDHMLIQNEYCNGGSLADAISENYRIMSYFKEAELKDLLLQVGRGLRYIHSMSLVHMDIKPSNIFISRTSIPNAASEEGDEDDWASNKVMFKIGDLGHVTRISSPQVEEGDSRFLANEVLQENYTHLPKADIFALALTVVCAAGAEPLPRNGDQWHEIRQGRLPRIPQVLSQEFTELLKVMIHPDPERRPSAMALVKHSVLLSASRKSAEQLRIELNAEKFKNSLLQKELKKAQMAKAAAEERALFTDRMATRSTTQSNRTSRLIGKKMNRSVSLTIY
T1 sequence (Q96SW2 whole entry): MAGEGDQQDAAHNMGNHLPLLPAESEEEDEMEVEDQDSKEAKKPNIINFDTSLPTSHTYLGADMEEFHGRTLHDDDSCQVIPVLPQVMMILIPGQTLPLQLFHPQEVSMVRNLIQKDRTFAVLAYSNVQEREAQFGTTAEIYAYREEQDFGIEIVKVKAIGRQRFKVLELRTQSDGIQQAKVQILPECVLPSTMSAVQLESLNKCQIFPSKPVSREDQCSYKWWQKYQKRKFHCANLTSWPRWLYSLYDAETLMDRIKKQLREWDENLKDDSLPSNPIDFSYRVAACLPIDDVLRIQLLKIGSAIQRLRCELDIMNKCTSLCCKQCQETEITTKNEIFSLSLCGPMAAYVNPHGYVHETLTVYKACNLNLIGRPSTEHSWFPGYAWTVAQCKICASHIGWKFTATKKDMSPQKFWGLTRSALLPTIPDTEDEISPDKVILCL
T1 sequence (Q16531 whole entry partner): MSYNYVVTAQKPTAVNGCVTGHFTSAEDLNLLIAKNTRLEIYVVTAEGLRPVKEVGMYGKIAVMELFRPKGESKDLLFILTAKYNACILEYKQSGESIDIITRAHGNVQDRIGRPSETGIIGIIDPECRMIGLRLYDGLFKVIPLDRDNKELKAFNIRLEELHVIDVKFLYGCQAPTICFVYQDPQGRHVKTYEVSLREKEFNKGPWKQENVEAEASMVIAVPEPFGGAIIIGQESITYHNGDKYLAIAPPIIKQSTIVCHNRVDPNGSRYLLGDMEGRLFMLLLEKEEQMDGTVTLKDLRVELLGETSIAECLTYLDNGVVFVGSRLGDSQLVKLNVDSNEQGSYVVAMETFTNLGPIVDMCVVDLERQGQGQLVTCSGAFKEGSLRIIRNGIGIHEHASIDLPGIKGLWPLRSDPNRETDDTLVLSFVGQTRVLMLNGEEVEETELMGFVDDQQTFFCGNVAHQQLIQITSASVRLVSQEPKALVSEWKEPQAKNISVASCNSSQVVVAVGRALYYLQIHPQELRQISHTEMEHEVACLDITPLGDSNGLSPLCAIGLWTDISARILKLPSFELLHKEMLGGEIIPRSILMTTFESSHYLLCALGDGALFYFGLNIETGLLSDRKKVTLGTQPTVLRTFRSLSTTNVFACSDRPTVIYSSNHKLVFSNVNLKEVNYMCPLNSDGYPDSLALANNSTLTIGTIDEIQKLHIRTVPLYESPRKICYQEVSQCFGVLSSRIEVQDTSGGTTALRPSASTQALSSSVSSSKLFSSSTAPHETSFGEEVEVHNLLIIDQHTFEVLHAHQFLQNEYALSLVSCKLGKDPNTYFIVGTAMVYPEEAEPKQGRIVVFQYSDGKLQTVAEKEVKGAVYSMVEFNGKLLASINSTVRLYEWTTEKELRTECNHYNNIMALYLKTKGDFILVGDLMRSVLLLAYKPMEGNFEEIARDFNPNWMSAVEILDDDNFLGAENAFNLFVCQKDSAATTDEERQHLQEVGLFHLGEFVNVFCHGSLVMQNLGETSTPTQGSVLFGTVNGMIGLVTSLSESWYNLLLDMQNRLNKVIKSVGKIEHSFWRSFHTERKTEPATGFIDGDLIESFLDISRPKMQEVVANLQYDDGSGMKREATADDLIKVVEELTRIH
T6 sequence (P15170 whole entry): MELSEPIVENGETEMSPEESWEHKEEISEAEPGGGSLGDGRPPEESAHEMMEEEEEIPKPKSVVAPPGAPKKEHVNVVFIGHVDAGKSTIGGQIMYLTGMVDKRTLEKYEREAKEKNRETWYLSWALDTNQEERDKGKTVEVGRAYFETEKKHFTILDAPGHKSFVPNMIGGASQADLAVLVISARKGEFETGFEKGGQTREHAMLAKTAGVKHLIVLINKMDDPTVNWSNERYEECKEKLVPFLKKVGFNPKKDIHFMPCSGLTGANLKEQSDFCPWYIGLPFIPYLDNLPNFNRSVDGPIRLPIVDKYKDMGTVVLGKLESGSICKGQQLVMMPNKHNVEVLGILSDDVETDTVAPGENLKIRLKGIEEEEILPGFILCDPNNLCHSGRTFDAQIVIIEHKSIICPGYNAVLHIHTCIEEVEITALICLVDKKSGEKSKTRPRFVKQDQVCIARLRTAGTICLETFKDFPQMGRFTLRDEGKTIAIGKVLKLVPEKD
T6 sequence (Q96SW2 whole entry): as the sequence (Q96SW2 whole entry) above
T6 sequence (Q16531 whole entry partner): as the sequence (Q16531 whole entry partner) above
T4 sequence (Q9UKT9 whole entry): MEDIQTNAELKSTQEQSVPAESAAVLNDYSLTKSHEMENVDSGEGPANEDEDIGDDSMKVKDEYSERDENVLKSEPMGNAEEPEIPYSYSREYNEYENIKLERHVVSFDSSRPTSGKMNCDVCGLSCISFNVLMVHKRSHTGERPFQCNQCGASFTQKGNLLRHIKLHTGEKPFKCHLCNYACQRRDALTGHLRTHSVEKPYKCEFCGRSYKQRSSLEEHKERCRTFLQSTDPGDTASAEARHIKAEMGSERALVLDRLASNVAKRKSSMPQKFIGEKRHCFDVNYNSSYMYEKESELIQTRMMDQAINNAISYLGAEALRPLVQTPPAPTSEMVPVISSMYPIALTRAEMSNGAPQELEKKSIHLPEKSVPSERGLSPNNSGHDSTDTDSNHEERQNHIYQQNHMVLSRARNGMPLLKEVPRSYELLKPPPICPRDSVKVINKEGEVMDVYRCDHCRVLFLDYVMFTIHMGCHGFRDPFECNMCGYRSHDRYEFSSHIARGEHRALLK
T4 sequence (Q96SW2 whole entry): as the sequence (Q96SW2 whole entry) above
T4 sequence (Q16531 whole entry partner): as the sequence (Q16531 whole entry partner) above
T3 sequence (Q9UKS7 whole entry): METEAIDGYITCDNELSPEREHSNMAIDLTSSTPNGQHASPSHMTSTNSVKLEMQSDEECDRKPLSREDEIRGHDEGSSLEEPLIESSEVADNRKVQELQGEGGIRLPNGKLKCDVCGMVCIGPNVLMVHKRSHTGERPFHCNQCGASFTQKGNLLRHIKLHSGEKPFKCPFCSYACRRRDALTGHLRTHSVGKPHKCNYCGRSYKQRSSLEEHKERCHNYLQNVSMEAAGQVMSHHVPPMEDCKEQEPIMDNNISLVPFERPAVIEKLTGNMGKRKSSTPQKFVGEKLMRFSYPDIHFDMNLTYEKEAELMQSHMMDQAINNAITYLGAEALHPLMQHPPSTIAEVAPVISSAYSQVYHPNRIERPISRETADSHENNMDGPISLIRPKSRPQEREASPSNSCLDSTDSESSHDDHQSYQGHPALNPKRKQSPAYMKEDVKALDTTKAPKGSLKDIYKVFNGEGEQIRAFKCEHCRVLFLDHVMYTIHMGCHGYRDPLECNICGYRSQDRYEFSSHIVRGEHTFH
T3 sequence (Q96SW2 whole entry): as the sequence (Q96SW2 whole entry) above
T3 sequence (Q16531 whole entry partner): as the sequence (Q16531 whole entry partner) above
T5 sequence (P48729 whole entry): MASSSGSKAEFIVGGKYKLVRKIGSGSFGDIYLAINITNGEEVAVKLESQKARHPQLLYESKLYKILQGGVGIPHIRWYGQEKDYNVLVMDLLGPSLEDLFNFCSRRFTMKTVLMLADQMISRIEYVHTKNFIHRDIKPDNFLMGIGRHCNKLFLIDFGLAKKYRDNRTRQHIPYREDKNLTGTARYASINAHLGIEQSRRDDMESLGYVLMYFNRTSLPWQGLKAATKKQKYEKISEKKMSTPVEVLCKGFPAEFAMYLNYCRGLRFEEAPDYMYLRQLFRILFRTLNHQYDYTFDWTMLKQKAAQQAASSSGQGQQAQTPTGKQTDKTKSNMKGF
T5 sequence (Q96SW2 whole entry): as the sequence (Q96SW2 whole entry) above
T5 sequence (Q16531 whole entry partner): as the sequence (Q16531 whole entry partner) above

Row | Structure (SMILES) | IC50 (MM.1S cells) [nM] | WEE1 substrate protein remaining % (WEE1) | IKZF1 substrate protein remaining % (IKZF1) | IKZF2 substrate protein remaining % (IKZF2) | IKZF3 substrate protein remaining % (IKZF3) | CK1α substrate protein remaining % (CK1α) | GSPT1 substrate protein remaining % (GSPT1)
1 | O=C1CCN(N2Cc3cc(CN4C[C@@H]5C[C@H]4CN5c4cccc(Cl)c4Cl)ccc3C2=O)C(=O)N1 [GT-05163, 1-(5-(((1S,4S)-5-(2,3-dichlorophenyl)-2,5-diazabicyclo[2.2.1]heptan-2-yl)methyl)-1-oxoisoindolin-2-yl)dihydropyrimidine-2,4(1H,3H)-dione] | 500 to 1000 | B (80%< substrate protein remaining % ≤100%) | A (0% ≤ substrate protein remaining % ≤80%) | A (0% ≤ substrate protein remaining % ≤80%) | A (0% ≤ substrate protein remaining % ≤80%) | B (80%< substrate protein remaining % ≤100%) | A (0% ≤ substrate protein remaining % ≤80%)
2 | O=C1CCN(N2Cc3cc(CN4CCC(c5c[nH]c6cc(F)ccc56)CC4)ccc3C2=O)C(=O)N1 [GT-05164, 1-(5-((4-(6-fluoro-1H-indol-3-yl)piperidin-1-yl)methyl)-1-oxoisoindolin-2-yl)dihydropyrimidine-2,4(1H,3H)-dione] | 100 to 300 | B (80%< substrate protein remaining % ≤100%) | A (0% ≤ substrate protein remaining % ≤80%) | A (0% ≤ substrate protein remaining % ≤80%) | B (80%< substrate protein remaining % ≤100%) | B (80%< substrate protein remaining % ≤100%) | A (0% ≤ substrate protein remaining % ≤80%)
3 | O=C1CCN(N2Cc3cc(CN4CCC(N5CCc6cc(F)ccc65)CC4)ccc3C2=O)C(=O)N1 [GT-05165, 1-(5-((4-(5-fluoroindolin-1-yl)piperidin-1-yl)methyl)-1-oxoisoindolin-2-yl)dihydropyrimidine-2,4(1H,3H)-dione] | 500 to 1000 | B (80%< substrate protein remaining % ≤100%) | B (80%< substrate protein remaining % ≤100%) | A (0% ≤ substrate protein remaining % ≤80%) | B (80%< substrate protein remaining % ≤100%) | B (80%< substrate protein remaining % ≤100%) | A (0% ≤ substrate protein remaining % ≤80%)
4 | O=C1CCN(N2Cc3cc(CN4CC=C(c5ccnc6cc(F)ccc56)CC4)ccc3C2=O)C(=O)N1 [GT-05166, 1-(5-((4-(7-fluoroquinolin-4-yl)-3,6-dihydropyridin-1(2H)-yl)methyl)-1-oxoisoindolin-2-yl)dihydropyrimidine-2,4(1H,3H)-dione] | 100 to 300 | A (0% ≤ substrate protein remaining % ≤80%) | A (0% ≤ substrate protein remaining % ≤80%) | A (0% ≤ substrate protein remaining % ≤80%) | A (0% ≤ substrate protein remaining % ≤80%) | B (80%< substrate protein remaining % ≤100%) | A (0% ≤ substrate protein remaining % ≤80%)
5 | Cn1cc(C2=CCN(Cc3ccc4c(c3)CN(N3CCC(=O)NC3=O)C4=O)CC2)c2ccc(F)cc21 [GT-05167, 1-(5-((4-(6-fluoro-1-methyl-1H-indol-3-yl)-3,6-dihydropyridin-1 (2H)-yl)methyl)-1-oxoisoindolin-2-yl)dihydropyrimidine-2,4(1H,3H)-dione] | 10 to 50 | A (0% ≤ substrate protein remaining % ≤80%) | A (0% ≤ substrate protein remaining % ≤80%) | A (0% ≤ substrate protein remaining % ≤80%) | A (0% ≤ substrate protein remaining % ≤80%) | B (80%< substrate protein remaining % ≤100%) | A (0% ≤ substrate protein remaining % ≤80%)
6 | O=C1CCN(N2Cc3cc(CN4CC(=C5CCOc6cc(F)ccc65)C4)ccc3C2=O)C(=O)N1 [GT-05168, 1-(5-((3-(7-fluorochroman-4-ylidene)azetidin-1-yl)methyl)-1-oxoisoindolin-2-yl)dihydropyrimidine-2,4(1H,3H)-dione] | 100 to 300 | B (80%< substrate protein remaining % ≤100%) | B (80%< substrate protein remaining % ≤100%) | B (80%< substrate protein remaining % ≤100%) | A (0% ≤ substrate protein remaining % ≤80%) | B (80%< substrate protein remaining % ≤100%) | A (0% ≤ substrate protein remaining % ≤80%)
7 | O=C1CCN(N2Cc3cc(CN4CC(N5CCc6cc(F)ccc65)C4)ccc3C2=O)C(=O)N1 [GT-05169, 1-(5-((3-(5-fluoroindolin-1-yl)azetidin-1-yl)methyl)-1-oxoisoindolin-2-yl)dihydropyrimidine-2,4(1H,3H)-dione] | 100 to 300 | B (80%< substrate protein remaining % ≤100%) | B (80%< substrate protein remaining % ≤100%) | A (0% ≤ substrate protein remaining % ≤80%) | A (0% ≤ substrate protein remaining % ≤80%) | B (80%< substrate protein remaining % ≤100%) | A (0% ≤ substrate protein remaining % ≤80%)
8 | O=C1CCN(N2Cc3cc(CN4CC=C(c5nccc(Cl)c5Cl)CC4)ccc3C2=O)C(=O)N1 [GT-06392, 1-(5-((3,4-dichloro-3′,6′-dihydro-[2,4′-bipyridin]-1′ (2′H)-yl)methyl)-1-oxoisoindolin-2-yl)dihydropyrimidine-2,4(1H,3H)-dione] | 300 to 500 | A (0% ≤ substrate protein remaining % ≤80%) | B (80%< substrate protein remaining % ≤100%) | A (0% ≤ substrate protein remaining % ≤80%) | A (0% ≤ substrate protein remaining % ≤80%) | A (0% ≤ substrate protein remaining % ≤80%) | A (0% ≤ substrate protein remaining % ≤80%)
9 | O=C1CCN(N2Cc3cc(CN4CC=C(c5cncc(Cl)c5Cl)CC4)ccc3C2=O)C(=O)N1 [GT-06393, 1-(5-((4,5-dichloro-3′,6′-dihydro-[3,4′-bipyridin]-1′ (2′H)-yl)methyl)-1-oxoisoindolin-2-yl)dihydropyrimidine-2,4(1H,3H)-dione] | 500 to 1000 | A (0% ≤ substrate protein remaining % ≤80%) | B (80%< substrate protein remaining % ≤100%) | A (0% ≤ substrate protein remaining % ≤80%) | A (0% ≤ substrate protein remaining % ≤80%) | A (0% ≤ substrate protein remaining % ≤80%) | A (0% ≤ substrate protein remaining % ≤80%)
10 | CC1(C)CCC(CN2CC3CC(C2)N3Cc2ccc3c(c2)CN(N2CCC(=O)NC2=O)C3=O)=C(c2ccc(Cl)cc2)C1 [GT-06456, 1-(5-((3-((4′-chloro-5,5-dimethyl-3,4,5,6-tetrahydro-[1,1′-biphenyl]-2-yl)methyl)-3,6-diazabicyclo[3.1.1]heptan-6-yl)methyl)-1-oxoisoindolin-2-yl)dihydropyrimidine-2,4(1H,3H)-dione] | 100 to 300 | A (0% ≤ substrate protein remaining % ≤80%) | A (0% ≤ substrate protein remaining % ≤80%) | A (0% ≤ substrate protein remaining % ≤80%) | A (0% ≤ substrate protein remaining % ≤80%) | A (0% ≤ substrate protein remaining % ≤80%) | A (0% ≤ substrate protein remaining % ≤80%)

From US20260356819A1, “OXOISOINDOLINYL-SUBSTITUTED […] DERIVATIVE AND USE THEREOF” (GLUETACS THERAPEUTICS (SHANGHAI) CO., LTD., priority 2023, published 2026)
